The text below walks through data of US9067914B1, “Tropomyosin-related kinase (TRK) inhibitors” (Genzyme Corporation, priority 2013, dated 2015).

The target in one assay is TrkA (Homo sapiens (Human), UniProt P04629). Put plainly: TrkA activity, off-chip mobility shift assay (LabChip 3000). It is filed as biochemical. The note with it: 55 μM ATP (ATP Km); n/d = none detected. From the text: (§1) Reagents and consumables were purchased from Sigma Aldrich, Carna Biosciences, or Caliper Life Sciences. All assay reaction conditions for IC50 determinations were within the linear range with respect to time and enzyme concentration. […] The LabChip 3000 separates and measures the fluorescent signal of fluorescein labeled peptide substrate and fluorescein labeled peptide product present in each well. Results are expressed as percent conversion by measuring peak height for both the substrate and product and dividing the product peak height by the sum of peak heights for both substrate and product.
TrkA, sequence (P04629 33-796): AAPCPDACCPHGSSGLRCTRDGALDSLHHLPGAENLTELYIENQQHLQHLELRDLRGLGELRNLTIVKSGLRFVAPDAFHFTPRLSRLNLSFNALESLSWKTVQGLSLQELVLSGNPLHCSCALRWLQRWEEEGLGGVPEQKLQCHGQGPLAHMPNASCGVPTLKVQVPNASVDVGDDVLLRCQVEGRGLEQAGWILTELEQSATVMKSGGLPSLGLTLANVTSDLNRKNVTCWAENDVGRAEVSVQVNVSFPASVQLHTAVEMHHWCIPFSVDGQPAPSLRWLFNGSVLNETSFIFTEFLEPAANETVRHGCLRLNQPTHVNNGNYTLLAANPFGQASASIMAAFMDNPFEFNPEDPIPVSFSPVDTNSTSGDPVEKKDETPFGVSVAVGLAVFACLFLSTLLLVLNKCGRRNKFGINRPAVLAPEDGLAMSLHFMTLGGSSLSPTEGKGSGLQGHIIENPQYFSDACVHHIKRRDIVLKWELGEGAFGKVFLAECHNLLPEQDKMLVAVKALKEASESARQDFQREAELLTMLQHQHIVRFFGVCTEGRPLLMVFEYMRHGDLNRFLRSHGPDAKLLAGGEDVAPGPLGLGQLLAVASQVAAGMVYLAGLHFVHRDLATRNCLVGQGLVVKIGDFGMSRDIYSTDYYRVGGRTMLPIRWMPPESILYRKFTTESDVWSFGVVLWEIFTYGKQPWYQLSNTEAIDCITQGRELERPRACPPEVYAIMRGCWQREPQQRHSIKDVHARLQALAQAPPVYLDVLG

A further assay addresses TrkB (Homo sapiens (Human), UniProt Q16620). Put plainly: TrkB activity, off-chip mobility shift assay (LabChip 3000). It is filed as biochemical. The note with it: 70 μM ATP (ATP Km); n/d = none detected.
Description: as §1

TrkB, sequence (Q16620 32-822): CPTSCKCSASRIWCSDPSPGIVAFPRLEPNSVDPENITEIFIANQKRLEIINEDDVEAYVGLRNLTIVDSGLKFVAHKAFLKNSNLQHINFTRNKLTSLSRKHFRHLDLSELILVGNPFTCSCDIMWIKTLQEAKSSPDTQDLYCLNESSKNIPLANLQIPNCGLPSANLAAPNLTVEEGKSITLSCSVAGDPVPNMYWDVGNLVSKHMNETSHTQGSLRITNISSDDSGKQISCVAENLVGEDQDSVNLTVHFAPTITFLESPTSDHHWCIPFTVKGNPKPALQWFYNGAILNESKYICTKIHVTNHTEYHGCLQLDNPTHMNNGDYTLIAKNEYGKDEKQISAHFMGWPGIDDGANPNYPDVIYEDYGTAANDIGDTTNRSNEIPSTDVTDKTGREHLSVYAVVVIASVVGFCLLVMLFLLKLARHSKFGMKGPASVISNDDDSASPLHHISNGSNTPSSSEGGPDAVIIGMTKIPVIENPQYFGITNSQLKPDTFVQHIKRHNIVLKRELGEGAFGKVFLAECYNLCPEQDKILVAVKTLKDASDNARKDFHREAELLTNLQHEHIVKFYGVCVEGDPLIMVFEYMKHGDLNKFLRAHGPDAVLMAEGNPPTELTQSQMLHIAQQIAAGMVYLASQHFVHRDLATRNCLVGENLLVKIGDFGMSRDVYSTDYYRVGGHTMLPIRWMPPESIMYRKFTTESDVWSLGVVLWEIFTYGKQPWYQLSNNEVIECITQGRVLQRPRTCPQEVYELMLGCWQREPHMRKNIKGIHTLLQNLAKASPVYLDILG

A word on the IC50: it is the concentration at which inhibition is half-maximal. For the compound `COc1cc(Cn2c(N)nc3cc(-c4cnn(C)c4)cnc32)ccc1OCc1ccc(CC(F)(F)F)cc1` [Ex. 3-40-4, 3-(3-methoxy-4-((4-(2,2,2-trifluoroethyl)benzyl)oxy)benzyl)-6-(1-methyl-1H-pyrazol-4-yl)-3H-imidazo[4,5-b]pyridin-2-amine], the IC50 on TrkA was found to be 0.2 nM; on TrkB it was 0.3 nM.

On to `COc1ccc(COc2ccc(Cn3c(N)nc4cc(C#CC5CCCCC5)cnc43)cc2OC)cn1` [Ex. 3-41, 6-(cyclohexylethynyl)-3-(3-methoxy-4-((6-methoxypyridin-3-yl)methoxy)benzyl)-3H-imidazo[4,5-b]pyridin-2-amine], for which the half-maximal inhibitory concentration (IC50) came out at 65 nM on TrkA and 80 nM on TrkB.

Regarding `COc1ccc(COc2ccc(Cn3c(N)nc4cc(C#CCCO)cnc43)cc2OC)cn1` [Ex. 3-42, 4-(2-amino-3-(3-methoxy-4-((6-methoxypyridin-3-yl)methoxy)benzyl)-3H-imidazo[4,5-b]pyridin-6-yl)but-3-yn-1-ol], the results for the IC50 at TrkA and on TrkB were 7 nM and 3 nM, respectively.

With `COc1ccc(C(Oc2ccc(Cn3c(N)nc4cc(-c5cnn(C)c5)cnc43)cc2OC)C2CC2)cn1` (stereo not shown) [Ex. 3-43, 3-(4-(cyclopropyl(6-methoxypyridin-3-yl)methoxy)-3-methoxybenzyl)-6-(1-methyl-1H-pyrazol-4-yl)-3H-imidazo[4,5-b]pyridin-2-amine], the IC50 was found to be 58 nM at TrkA and 51 nM at TrkB.

As for `COc1cc2c(cn1)C(Oc1ccc(Cn3c(N)nc4cc(-c5cnn(C)c5)cnc43)cc1OC)CCC2` (stereo not shown) [Ex. 3-44, 3-(3-methoxy-4-((3-methoxy-5,6,7,8-tetrahydroisoquinolin-8-yl)oxy)benzyl)-6-(1-methyl-1H-pyrazol-4-yl)-3H-imidazo[4,5-b]pyridin-2-amine], the concentration for half-maximal inhibition (IC50) on TrkA amounted to 39 nM; at TrkB, 41 nM.

Take `COc1ccc(COc2ccc(C(C)n3c(N)nc4cc(-c5cnn(C)c5)ccc43)cc2OC)cn1` (stereo not shown) [Ex. 3-45, 1-(1-(3-methoxy-4-((6-methoxypyridin-3-yl)methoxy)phenyl)ethyl)-5-(1-methyl-1H-pyrazol-4-yl)-1H-benzo[d]imidazol-2-amine]: the half-maximal inhibitory concentration (IC50) at TrkA was found to be 3 nM; on TrkB, 1 nM.

Regarding `COc1ccc(COc2ccc(C(C)n3c(N)nc4cc(-c5ccc(F)cc5)ccc43)cc2OC)cn1` (stereo not shown) [Ex. 3-46, 5-(4-fluorophenyl)-1-(1-(3-methoxy-4-((6-methoxypyridin-3-yl)methoxy)phenyl)ethyl)-1H-benzo[d]imidazol-2-amine], the IC50 at TrkA was determined as 85 nM; on TrkB, 37 nM.

In the case of `COc1cc(C(C)n2cnc3cc(-c4ccc(F)cc4)ccc32)ccc1OCc1ccc(C(F)(F)F)nc1` (stereo not shown) [Ex. 3-47, 5-(4-fluorophenyl)-1-(1-(3-methoxy-4-((6-(trifluoromethyl)pyridin-3-yl)methoxy)phenyl)ethyl)-1H-benzo[d]imidazole], the IC50 on TrkA amounted to 1240 nM; on TrkB, 427 nM.

On to `COc1cc(C(C)n2cnc3cc(-c4cnn(C)c4)ccc32)ccc1OCc1ccc(C(F)(F)F)nc1` (stereo not shown) [Ex. 3-48-1, 1-(1-(3-methoxy-4-((6-(trifluoromethyl)pyridin-3-yl)methoxy)phenyl)ethyl)-5-(1-methyl-1H-pyrazol-4-yl)-1H-benzo[d]imidazole], for which the values for the half-maximal inhibitory concentration (IC50) on TrkA and at TrkB were 102 nM and 14 nM, respectively.

For `COc1cc(C(C)n2cnc3cc(C#CCCO)ccc32)ccc1OCc1ccc(C(F)(F)F)nc1` (stereo not shown) [Ex. 3-48-2, 4-(1-(1-(3-methoxy-4-((6-(trifluoromethyl)pyridin-3-yl)methoxy)phenyl)ethyl)-1H-benzo[d]imidazol-5-yl)but-3-yn-1-ol], the results for the half-maximal inhibitory concentration (IC50) on TrkA and at TrkB were 692 nM and 127 nM, respectively.

`COc1cc(C(C)n2cnc3cc(-c4cnn(C)c4)cnc32)ccc1OCc1ccc(C(F)(F)F)nc1` (stereo not shown) [Ex. 3-52, 3-(1-(3-methoxy-4-((6-(trifluoromethyl)pyridin-3-yl)methoxy)phenyl)ethyl)-6-(1-methyl-1H-pyrazol-4-yl)-3H-imidazo[4,5-b]pyridine]: the values for the half-inhibitory concentration (IC50) on TrkA and at TrkB were 7 nM and 1 nM, respectively.
